What was measured:
[1] = tested on: FGF1A mRNA in white adipose tissue (WAT); experiment: FGF1A mRNA in white adipose tissue after PPARγ ligand treatment; format: in vivo; settings: fed mice, oral 5 mg/kg for 3 days
Procedure: To test this hypothesis the expression of FGF1A in response to feeding, fasting and PPARγ ligand treatment was determined (FIG. 47, left panel).

TRAP expression = settings: human peripheral mononuclear cells; Reddy 1996; cited from earlier work
pre-adipocytes = settings: treatment of pre-adipocytes; Hutley 2004, Newell 2006; cited from earlier work

CN(CCOc1ccc(CC2SC(=O)NC2=O)cc1)c1ccccn1 (stereo not drawn) [BRL, BRL49653 (Rosiglitazone)]
mRNA levels of FGF1A [1]: significantly increased

ferric protoporphyrin IX [hemin]
TRAP expression at the transcriptional level (TRAP expression): inhibited

recombinant FGF1: recombinant FGF1, fibroblast growth factor polypeptide
effect on pre-adipocytes (pre-adipocytes): increased proliferation and adipogenesis
